Where two headings read alike, the source gives them in different places.
Columns and labels:
[1] = system: L. infantum promastigotes; test: Leishmanicidal assay using L. infantum promastigotes (resazurin); assay type: cell-based, Leishmania infantum; settings: 20–2.5 μM, 24 h, Fig 2C
Procedure: Promastigotes of L. infantum (1x10^6 parasites/well) were distributed in 96-well plates, and the test compounds (cytochalasins A-D) were added at concentrations of 20–2.5 μM. The plates were incubated under the same conditions as previously described for 24 h. The leishmanicidal activity was determined by adding 20 μL of resazurin (Sigma-Aldrich), and the plates were incubated for 4 h. The absorbance was measured at 536 and 588 nm in an automated SpectraMax Gemini microplate reader, and the data were analysed using GraphPad Prism version 8.0 for the CC50 value calculation. The percentage of nonviable parasites was determined and compared to the negative control wells.

[2] = in vitro; assay type: cell-based; settings: human; 72 h, resazurin; read-out: THP-1 CC50 (μM ± SD)
Procedure: (§1) THP-1 (human monocyte cell line) cells were cultivated in RPMI medium supplemented with 10% foetal calf serum (FCS) (Cultilab, Campinas, SP, BR) and 1% penicillin and streptomycin (pen/strep—Sigma-Aldrich) at 37°C under 5% CO2, and HFF-1 (human fibroblast) and HepG2 (hepatocytes) cells were cultivated in DMEM without phenol red (Cultilab) supplemented with 10% FBS (Sigma-Aldrich) and 1% pen/strep at 37°C under 5% CO2.
THP-1 cells were seeded at 2x10^4/well in 96-well culture plates in RPMI 1640 supplemented (10% FCS, 1% pen/strep) and incubated overnight (37°C, 5% CO2). The compounds were added in 2-fold serial dilutions (64–0.12 μM), and the plates were incubated as described before. Each compound concentration was evaluated in duplicate. All the plates included DOX (Sigma-Aldrich) as a positive control (10–0.01 μM) and untreated wells as a negative control (100% growth). After 72 h, 20 μL of resazurin (Sigma-Aldrich) was added, and the plates were incubated for 4 h. The absorbance was measured at 536 and 588 nm in an automated microplate reader SpectraMax Gemini, and the data were analysed using GraphPad Prism version 8.0 for CC50 value calculation. The percentage of nonviable cells was determined and compared to the negative control wells (100% growth).

[3] = in vitro; assay type: cell-based; settings: human, 72 h, MTS
Procedure: as §1
The cytotoxicity of the compounds against HFF-1 fibroblasts and HepG2 hepatocytes was evaluated using the MTS tetrazolium assay (Promega, Madison, WI, USA). HFF-1 fibroblasts were seeded at 4x10^3/well in 96-well culture plates in DMEM without phenol red and incubated overnight (37°C, 5% CO2). HepG2 hepatocytes were seeded at 7x10^3/well in 96-well culture plates in DMEM (Cultilab) with supplements (10% FCS, 1% pen/strep) and incubated overnight (37°C, 5% CO2). The compounds were added in 2-fold serial dilutions at the same concentrations described before, and the plates were incubated as described before. Each compound concentration was evaluated in duplicate. All the plates included doxorubicin (DOX) (Sigma-Aldrich) as a positive control (10–0.01 μM) and untreated wells as a negative control (100% growth). After 72 h, 15 μL of MTS (Promega) was added, and the plates were incubated for 4 h. The absorbance was measured at 490 nm in an automated SpectraMax 384 microplate reader (Sunnyvale, CA, USA), and the data were analysed using GraphPad Prism version 8.0 for CC50 value calculation. The percentage of nonviable cells was determined and compared to the negative control wells (100% growth).

SMILES | toxicity to L. infantum promastigote parasites [1] | CC50 [2] [µM] | CC50 ([3]; read-out: HFF-1 CC50 (μM ± SD)) [µM] | CC50 ([3]; read-out: HepG2 CC50 (μM ± SD)) [µM]
C=C1[C@@H](C)[C@H]2[C@H](Cc3ccccc3)NC(=O)[C@]23OC(=O)/C=C/C(=O)CCC[C@@H](C)C/C=C/[C@H]3[C@@H]1O [Cytochalasin A] | toxic | 17 ± 1.34 | 27.07 ± 0.17 | 21.1 ± 4.51
C=C1[C@@H](C)[C@H]2[C@H](Cc3ccccc3)NC(=O)[C@]23[C@H](OC(C)=O)/C=C/[C@@](C)(O)C(=O)[C@@H](C)C/C=C/[C@H]3[C@@H]1O [Cytochalasin D] |  | 122 ± 11.3 | 96.5 ± 10 | 123 ± 20
CC(=O)OC1C=CC(C)(O)C(=O)C(C)CC=CC2C(O)C(C)=C(C)C3C(Cc4ccccc4)NC(=O)C123 (centres unmarked) [Cytochalasin C] | toxic | 84.8 ± 6.84 | 76.3 ± 3.12 | 22.5 ± 6.47
C=C1[C@@H](C)[C@H]2[C@H](Cc3ccccc3)NC(=O)[C@]23OC(=O)/C=C/[C@H](O)CCC[C@@H](C)C/C=C/[C@H]3[C@@H]1O [Cytochalasin B] |  | 109 ± 2.4 | 21.8 ± 3.57 | 46.3 ± 19.3
